Holding throughout (format): cell-based
Experiment [1] has as its system HPEKp cells (human epidermal keratinocyte progenitors, pooled). Briefly: alamarBlue proliferation assay with HPEKp cells. As to conditions: 120 h, relative to DMSO basis level 1.0, read-out: weighted arithmetic mean (AVEw) of normalized fluorescence intensity, activity range. The protocol:
(§1) The antiproliferative activities of compounds falling under formula I, formula II, formula III, formula IV and formula V were investigated on cells or cell lines originating from a disorder of the myeloid cell compartment, the neuroendocrine system, the cervix, and the mucosal epithelium, as well as from the skin epithelium. To this end, HL-60 cells, TT cells, HeLa cells, CAL-27 cells and human primary epidermal keratinocytes (HPEK) were seeded into 96-well plates suitable for fluorescence assays (CORNING #3598) at following initial cell numbers: 1000 cells per well for HL-60; 9000 cells per well for TT; 2000 cells per well for HeLa, 2000 cells per well for CAL-27, 2000 cells per well for HPEK. The cells were treated with compounds at indicated final concentrations (diluted from the 1000× stock-solutions in DMSO to a final DMSO concentration of 0.1% v/v) or with the empty carrier DMSO at 0.1% v/v as control for 5 days. At day 5 after starting the treatments the cells were subjected to the alamarBlue® Proliferation Assay (Bio-Rad Serotec GmbH, BUF012B) according to the protocol of the manufacturer. The readout was taken with a multi-well plate-reader in the fluorescence mode with applying a filter for excitation at 560 nm (band width 10 nm) and for emission at 590 nm (band width 10 nm). Resveratrol (RES) treatment was included as control for growth inhibition.
The assays were performed in duplicate or more replicates of independent single experiments each containing a six-fold replicate for every condition. For every individual plate, the measured fluorescence intensity values of the conditions with compound treatment were normalized against the corresponding equally weighted arithmetic mean of the fluorescence intensity values of the six DMSO treated control wells in order to obtain the relative values to a baseline level of 1.0. The statistical calculations were performed in analogy to the luciferase assay as described above. To this end, two independent outlier analyses were performed according to the methods by Peirce and Chauvenet (Ross, Journal of Engineering Technology 2003, 1-12). Outliers confirmed by at least one of the methods were excluded from the calculations but not more than one value out of six per compound within a single experiment. The weighted arithmetic mean AVEw for each compound was calculated from the normalized values over all independent replicates of the single experiments comprising the six replicates each. The corresponding standard deviation for the weighted arithmetic mean was calculated according to the method described by Bronstein et al. (Bronstein, Semendjajew, Musiol, Mühlig, Taschenbuch der Mathematik, 5th edition 2001 (German), publisher: Verlag Harri Deutsch, Frankfurt am Main and Thun) and was combined with the Gauß′ error propagation associated with the performed calculation for the normalization. The resulting standard deviation is herein referred to as “combined standard deviation”.
HPEKp cells were cultivated according to the protocol of the provider in CnT-Prime epithelial culture medium (CELLnTEC, #CnT-PR, a fully defined, low calcium formulation, completely free of animal or human-derived components) without addition of further components.
A compound is considered as a growth inhibitor of HPEKp cells, if—at a reference concentration of 10 μM—the weighted arithmetic mean of the normalized fluorescence intensity values after addition of the corresponding combined standard deviation amounts to 0.9 or lower, in particular to 0.8 or lower, 0.7 or lower, 0.6 or lower, 0.4 or lower, and 0.2 or lower, relative to the overall basis level of 1.0. The overall basis level was calculated as the weighted arithmetic mean of all normalized values from the DMSO control measurements in analogy to the calculations performed for the test-compounds. The corresponding combined standard deviation for the DMSO values amounts to less than 1·10^−2.
On the technique in general: Resazurin is reduced to fluorescent resorufin, in cell work by metabolically active cells.

The subject of experiment [2] is HeLa cells (human cervical adenocarcinoma cells). The experiment in a line: alamarBlue proliferation assay with HeLa cells. As to conditions: relative to DMSO basis level 1.0. The protocol: as §1, with “The cells were treated with compounds at indicated final concentrations (diluted from the 1000× stock-solutions in DMSO to a final DMSO concentration of 0.1% v/v) or with the empty carrier DMSO at 0.1% v/v as control for 5 days. At day 5 after starting the treatments the cells were subjected to the alamarBlue® Proliferation Assay (Bio-Rad Serotec GmbH, BUF012B) according to the protocol of the manufacturer.” left out, “Resveratrol (RES) treatment was included as control for growth inhibition.” left out
The assays were performed in duplicate or more replicates of independent single experiments each containing a six-fold replicate for every condition. For every individual plate, the measured fluorescence intensity values of the conditions with compound treatment were normalized against the corresponding equally weighted arithmetic mean of the fluorescence intensity values of the six DMSO treated control wells in order to obtain the relative values to a baseline level of 1.0. […]

For experiment [3], the system named is C2C12 cells (murine myoblast cells). The experiment in a line: alamarBlue proliferation assay with C2C12 cells. To be noted: 40 μM, 3 days treatment, single assay (preliminary), relative to DMSO basis level 1.0. As for the experimental part:
Compounds were tested on C2C12 cells using the alamarBlue® proliferation assay in analogy to the above described method with seeding the cells at an initial number of 2000 cells per 96-well and a duration of treatment with compounds for 3 days.
In one embodiment, two compounds of the invention were found so far to inhibit the growth of C2C12 cells (murine myoblast cells) obtainable from the Deutsche Sammlung von Mikroorganismen and Zellkulturen GmbH (DSMZ) under the accession number ACC 565. C2C12 cells were cultivated according to the protocol of the provider in RPMI 1640 medium (Fisherscientific, #11554526) containing 10% fetal bovine serum (Fisherscientific, #15517589).
A compound is considered as a growth inhibitor of C2C12 cells, if—at a reference concentration of 40 μM—the equally weighted arithmetic mean (AVE) of the six normalized fluorescence intensity values after addition of the corresponding standard deviation amounts to 0.9 or lower, in particular to 0.8 or lower, 0.7 or lower, 0.6 or lower, 0.4 or lower, and 0.2 or lower, relative to the overall basis level of 1.0. The overall basis level was calculated as the equally weighted arithmetic mean (AVE) of the six normalized values from the DMSO control measurements in analogy to the calculations performed for the test-compounds. […]

Take `O=C(NO)c1ccc(Oc2ccc(C3CC4CCC3CC4)cc2)nc1` (stereo not shown) [Compound 287, 6-(4-((1s,4s)-bicyclo[2.2.2]octan-2-yl)phenoxy)-N-hydroxynicotinamide]: the activity at 10 µM in experiment [1] is 0 to 20%.

Consider `O=C(NO)c1cnc(Oc2ccc(C3CCCCC3)cc2)c(F)c1` [Compound 644, 6-(4-Cyclohexylphenoxy)-5-fluoro-N-hydroxynicotinamide], for which the activity at 10 µM in experiment [1] is 0 to 20%. As for `Oc1ccc(C=Cc2cc(O)cc(O)c2)cc1` [RES, resveratrol, reference compound], in experiment [1], the activity at 10 µM worked out at 40%. In experiment [2] (40 μM), the “weighted arithmetic mean (AVEw) of normalized fluorescence intensity, activity range” value is reported as 0.4 ± 0.0. Further, in experiment [2] (control RES at 20 μM), the “weighted arithmetic mean (AVEw) of normalized fluorescence intensity” value amounted to 0.9 ± 0.0. In experiment [3], the “equally weighted arithmetic mean (AVE) of six normalized fluorescence intensity values, activity range” value amounted to 0.3 ± 0.0.

With `CCC(C)(C)c1ccc(Oc2ccc(C(=O)NO)cn2)cc1` [Compound 273, N-hydroxy-6-(4-(tert-pentyl)phenoxy)nicotinamide], in experiment [1], the activity at 10 µM lay within 0 to 20%. For `CN(C)C(=O)c1ccc(Oc2ccc(C3CCCCC3)cc2)nc1` [Compound 334, 6-(4-cyclohexylphenoxy)-N,N-dimethylnicotinamide], in experiment [1], the activity at 10 µM was 60 to 70%. As for `NC(=O)c1ccc(Oc2ccc(C3CC4CCC3C4)cc2)cc1` (racemic) [Compound 159, (±)-4-(4-(Bicyclo[2.2.1]heptan-2-yl)phenoxy)benzamide], the activity at 10 µM in experiment [1] fell in the range of 0 to 20%.

Turning to `O=C(NO)c1ccc(Oc2ccc(C3CCCCC3)cc2)cc1` [Compound 182, 4-(4-cyclohexylphenoxy)-N-hydroxybenzamide], in experiment [1], the activity at 10 µM fell in the range of 0 to 20%.

(Values after US12600696B2 (XENIOPRO GMBH, priority 2017, dated 2026).)
